In patent publication EP4529915A1, “LIPOSOMAL PREPARATIONS FOR USE IN TREATING CANCER” (DG-Nika AG, priority 2023, dated 2025):
Read-outs that look alike come from different tables or passages of the source.

How the values were obtained:
[1] = in water, no additives used; cited from earlier work
[2] = Dissolution of lomustine in aqueous cyclodextrin solution (solubility); type: physicochemical
Description: However, they made an unexpected discovery that a methyl-β-CD (methyl-β-cyclodextrin) solution was able to dissolve lomustine crystals to the aqueous phase within a few seconds. They determined that the mechanism of this process is mostly related to co-dissolution rather than the formation of an inclusion complex as is often the case. In this respect, the formation of an inclusion complex usually takes from a few to several hours and requires constant mixing, heating and the use of a co-solvent such as ethanol or methanol.
The present invention provides a method of preparing a liposomal form of lomustine by (i) producing its aqueous solution of high concentration and (ii) then encapsulating it in the aqueous space of liposomes. Thanks to the use of selected cyclodextrins it is possible to obtain a high concentration of lomustine in water of ~20 mg / ml. The normal concentration of lomustine is not more than 0.11 mg/ml when no additives are used. This method makes it possible to encapsulate lomustine in the water space of liposomes in the form of its solution in water or/and inclusion complex with cyclodextrins, or to obtain the effect of co-dissolving lomustine and cyclodextrin in an aqueous solution. The main advantage of this solution is to limit the crystallization and escape of the drug from the liposomes by transferring it to an aqueous solution using not organic solvents such as ethanol, but various organic substances that can be administered intravenously without harming the patient and not damaging the liposomes as is the case with high concentrations of ethanol needed to obtain a high concentration of lomustine in water.
For this reason, they were looking for a way to effectively encapsulate the drug in the aqueous space of liposomes as a real solution. While searching for substances that could potentially enable the transfer of lomustine from its crystals to the aqueous phase, inventors unexpectedly discovered that a methyl-β-CD solution dissolved lomustine within a few seconds. […]

[3] = cited from earlier work

Structure (SMILES): O=NN(CCCl)C(=O)NC1CCCCC1 [lomustine]
- normal concentration of lomustine [1]: not more than 0.11 mg/ml
- concentration of lomustine in solution ([2]; 25% methyl-β-CD solution, room temperature (R.T.)): at least 20 mg/ml
- time for dissolution of lomustine crystals to the aqueous phase ([2]; methyl-β-CD solution, room temperature): a few seconds
- concentration of lomustine in water ([2]; with selected cyclodextrins): ~ 20 mg / ml
- metabolites remaining in the body ([3]; 5 days after administration): 15-20%
- time until active metabolites appear in substantial concentrations in CSF ([3]; after oral administration): ≤ 30 min
- concentration of metabolites in the cerebrospinal fluid relative to plasma ([3]; in vivo): 150%
- cyclohexyl moiety of lomustine bound to plasma proteins ([3]; in vivo): About 600
- second phase plasma half-life ([3]; in vivo): 24 to 48 h
- detection of lomustine in cerebral spinal fluid (CSF) ([3]; oral, parent drug): not detectable
- bioavailability ([3]; orally administered): very low
- biotransformation half-life ([3]; throughout the body): less than 1 hour
- dose of the drug excreted as metabolites in the urine ([3]; within 24 hours): about half
- dose of the drug excreted as metabolites in the urine ([3]; within 4 days): less than 75%
